From US20140088114A1, “FUSED BICYCLIC KINASE INHIBITORS” (OSI Pharmaceuticals ,LLC, priority 2011, published 2014)
Like-named read-outs stand apart in the source and are kept apart here.

Legend:
Format in all cases: cell-based
RON = target: T1, RON (Homo sapiens, UniProt Q04912); experiment: sfRON cell mechanistic assay (HeLa), phosphorylated RON
T1 construct: expressed in transfected cells; host or cells: HeLa
T1 sequence (Q04912 913-1400 limits assumed): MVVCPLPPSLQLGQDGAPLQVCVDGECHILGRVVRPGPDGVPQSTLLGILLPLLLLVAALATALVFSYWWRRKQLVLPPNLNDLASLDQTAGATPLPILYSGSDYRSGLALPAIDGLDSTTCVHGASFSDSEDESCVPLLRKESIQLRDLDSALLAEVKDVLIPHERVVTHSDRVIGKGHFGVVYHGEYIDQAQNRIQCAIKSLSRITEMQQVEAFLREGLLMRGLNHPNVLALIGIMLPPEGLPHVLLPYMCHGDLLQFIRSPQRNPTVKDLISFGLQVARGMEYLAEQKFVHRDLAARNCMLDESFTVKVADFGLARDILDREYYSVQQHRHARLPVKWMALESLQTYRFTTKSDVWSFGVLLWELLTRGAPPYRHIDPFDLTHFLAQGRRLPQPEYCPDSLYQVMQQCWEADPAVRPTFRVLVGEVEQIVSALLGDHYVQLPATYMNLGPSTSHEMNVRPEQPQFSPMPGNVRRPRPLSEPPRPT
Procedure: The cellular activity of the compounds of the present invention against RON may be determined by the following procedure. HeLa cells were plated in Falcon 3072 96-well plates in growth media (DMEM, 10% FBS, 1% L-glutamine) at a density of 10000 cells/well and incubated at 37° C., 5% CO2 overnight. The following day, cells were transfected with 0.2 μg sfRON-pcDNA plasmid DNA with 0.5 μL Lipofectamine2000 per well in the presence of 50 μL OPTI-MEM, incubated at 37° C., 5% CO2 overnight. Costar 3915 96-well assay plates were coated with rabbit Anti-RON antibody at 2.0 μg/mL, sealed, and incubated overnight at 4° C. On the third day, coated plates were washed with PBS and blocked with 3% BSA. For the sfRON transfected cells, one-tenth volume of a 10× concentration of compounds was added to the wells in a 6-point dilution series. The dilution series was composed of an initial 1:5 dilution of a 10 mM DMSO stock solution of compound in DMSO, followed by a 1:10 dilution in growth media, for a final DMSO concentration on cells of 0.5%. Control wells were treated with 0.5% DMSO. The typical range of dilution was 10 μM to 3 nM. Once compound was added to the cells, plates were incubated for four hours at 37° C., 5% CO2. Plates were then washed in PBS, and lysed in triton-based lysis buffer. Lysates were transferred to the blocked capture plates. The phosphorylated RON levels were measured by incubating with a Goat polyclonal antibody against phosphorylated RON ([pYpY1238/1239]) followed by an anti-Goat antibody conjugated to HRP. Signal was measured on a Wallac Victor plate reader with luminance. The DMSO signal of the control wells was defined as 100% and the percent of inhibition of phosphorylated RON was expressed as percent of control. IC50 values were determined from the percent of control data using a standard four-parameter model.
(§1) The IC50 values of exemplary compounds of the present invention determined in a sfRON cell mechanistic assay using the HeLa cell line according to the procedures described herein in at least duplicate experiments are abbreviated as follows and are shown in Table 3: A, IC50≦0.03 μM; B, 0.03 μM<IC50≦0.1 μM; C, 0.1 μM<IC50≦1 μM; D, 1 μM<IC50≦3 μM; ND, not determined. The Example # of Table 3 corresponds to the compound example number as illustrated in the Examples section.

Aurora B = target: T2, Aurora B (Homo sapiens, UniProt Q96GD4); experiment: Aurora B cell mechanistic assay (HT-29), phospho-Histone H3 (Ser10) ELISA; settings: HT-29 cell line, inhibition of phospho-Histone H3 (Ser10), at least duplicate experiments (italicized if single); read-out: Aurora B mech IC50
T2 construct: HT-29 cells grown in complete growth media; endogenous in cells; host or cells: HT-29
T2 sequence (Q96GD4 whole entry): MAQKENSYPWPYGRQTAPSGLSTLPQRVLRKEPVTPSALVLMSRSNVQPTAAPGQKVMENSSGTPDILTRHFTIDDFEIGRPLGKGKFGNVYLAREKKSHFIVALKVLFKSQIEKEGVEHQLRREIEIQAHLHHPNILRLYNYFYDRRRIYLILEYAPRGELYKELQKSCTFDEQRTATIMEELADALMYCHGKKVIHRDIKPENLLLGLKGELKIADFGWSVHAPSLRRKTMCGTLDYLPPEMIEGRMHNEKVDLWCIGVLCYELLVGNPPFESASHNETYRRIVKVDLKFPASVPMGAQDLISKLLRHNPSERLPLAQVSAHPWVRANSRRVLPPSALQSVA
Procedure: The cellular activity of the compounds of the present invention against Aurora B may be determined by the following procedure. HT-29 cells grown in complete growth media (McCoy's 5A, 10% FCS, 1% L-glutamine) were plated into wells of a 96 well tissue culture plate (Falcon 3072) at a cell density of 4×10^4 cells/0.09 ml media/well. Cells were subsequently incubated overnight in a 5% CO2 humidified 37° C. incubator. The following day 10 μl of a 10× stock of test compound serially diluted in media was added to the cells and incubated for 1 h at 37° C. at which time Calyculin A (Cell Signaling #9902) was added at a concentration of 100 nM and cells incubated for an additional 30 minutes in a 5% CO2 humidified 37° C. incubator. Media was then aspirated and cells lysed using a Triton based lysis buffer. Lysates were transferred to a pre-coated anti-Histone H3 antibody coated plate supplied by Cell Signaling in their PathScan phospho-Histone H3 (Ser10) ELISA kit (#7155). After an overnight incubation with lysate the ELISA was continued following the manufacturer's instructions. Signal was measured on a Wallac Victor plate reader at 450 nm. DMSO control treated cells served as 100% signal and an Aurora B kinase inhibitor served as 100% inhibition. The percent inhibition of phospho-Histone H3 (Ser10) was expressed as % control. IC50 values were calculated from the percent control data using a standard four-parameter model.
as §1, with “a Aurora B” for “a sfRON”, “the HT-29” for “the HeLa”, “Table 4:” for “Table 3:”, “determined. If only data from single experiments are available, the abbreviations are italicized.” for “determined.”, “Table 4” for “Table 3”

Karpas-299 cells = experiment: Karpas-299 cell proliferation assay (CellTiter-Glo); settings: Homo sapiens, 72 h; Karpas-299 cell line (NPM-ALK), 3 days incubation, at least duplicate experiments; read-out: Prolif. IC50
Procedure: The effect of inhibitors on the proliferation of Karpas-299 cells (DSMZ no. ACC 31) was determined using the following protocol. Karpas-299 cells were plated in 96-well white tissue culture treated plates (Corning 3917) in growth medium (RPMI, 10% FCS) at a density of 5000 cells/well in a total volume of 135 μL and incubated at 37° C., 5% CO2, 95% humidity overnight. The following day, one-tenth volume of a 10× concentration of compounds was added to the wells in an 8-point dilution series. Compounds were serially diluted (1:4) in DMSO from a 10 mM stock solution prior to dilution in growth media to the 10× working concentrations (5% DMSO). Final concentration of DMSO in compound-treated wells was 0.5%. Control wells containing growth media or growth media/0.5% DMSO were included in all test plates. The typical dilution range is 10 μM to 0.1 nM. Once the compounds were added to the cells, plates were incubated for 3 days at 37° C., 5% CO2 at 95% humidity. After 72 hours, all cells and reagents were equilibrated to room temperature and 15 μL of CellTiter-Glo reagent (Promega #G7573) was added to each well. Plates were shaken on a platform for 10 minutes at room temperature prior to reading luminescence. The value of the signal of the control wells was set as 100% growth and growth inhibition was expressed as percent of control. IC50 values were determined from the percent of control data using a standard four-parameter curve fit equation.
as §1, with “a” for “a sfRON”, “cell proliferation” for “cell mechanistic”, “the Karpas-299” for “the HeLa”, “Table 5:” for “Table 3:”, “Table 5” for “Table 3”
The Karpas-299 cell line has a t(2;5) chromosomal translocation and expresses the NPM-ALK fusion protein, resulting in constitutively active ALK. […] Ther. 6(12):3314-22 (2007)]. With this “ALK-driven” cell line by ALK, the cell proliferation IC50 values can thus be used as surrogate for the p-ALK cell mechanistic IC50 values.

[1] = Table 6: comparison X = C1-3haloalkyl vs. X = C1-3alkyl, read-out: sfRON cell mechanistic

SMILES | IC50 (RON; [1]) [nM] | IC50 (Aurora B) [nM] | IC50 (RON; sfRON transfected HeLa cells, four hours incubation, inhibition of phosphorylated RON, at least duplicate experiments, read-out: sfRON mech IC50) [nM] | IC50 (Karpas-299 cells) [nM]
C[C@H](c1c(OC(F)F)ccc(F)c1Cl)c1c[nH]c2ncc(-c3cnn([C@H]4CC[C@H](O)CC4)c3)cc12 [reference compound] | 30 to 100 | – | – | –
COc1ccc(F)c(Cl)c1[C@@H](C)c1c[nH]c2ncc(-c3cnn([C@H]4CC[C@H](O)CC4)c3)cc12 [reference compound] | 100 to 1000 | – | – | –
COc1ccc(F)c(Cl)c1[C@H](CF)c1c[nH]c2ncc(-c3cnn([C@H]4CC[C@H](O)CC4)c3)cc12 [Example 2, trans-4-(4-{3-[(1R)-1-(2-chloro-3-fluoro-6-methoxyphenyl)-2-fluoroethyl]-1H-pyrrolo[2,3-b]pyridin-5-yl}-1H-pyrazol-1-yl)cyclohexanol] | – | 100 to 1000 | 1000 to 3000 | 100 to 1000
CC(c1c(Cl)ccc(F)c1Cl)c1c[nH]c2ncc(-c3cnn(C)c3)cc12 (stereo not drawn) [reference compound] | 1000 to 3000 | – | – | –
